Results: PubChem BioAssay (NCI)
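All cell lines were grown in 96-well plates and treated with compound for 48 hours. TGI: concentration producing complete growth inhibition.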

Tests used:
Assay in all cases: NCI-60 cell line screen, 48 h
SK-MEL-5 melanoma = system: SK-MEL-5 melanoma
UACC-62 melanoma = system: UACC-62 melanoma
A549 NSCLC = system: A549 NSCLC
NCI-H226 lung = system: NCI-H226 lung
U251 CNS = system: U251 CNS
NCI-H23 lung = system: NCI-H23 lung
SK-MEL-2 melanoma = system: SK-MEL-2 melanoma
SNB-78 CNS = system: SNB-78 CNS
EKVX NSCLC = system: EKVX NSCLC
SF-268 CNS = system: SF-268 CNS
TK-10 renal = system: TK-10 renal
SNB-75 CNS = system: SNB-75 CNS
COLO 205 colon = system: COLO 205 colon
XF 498 CNS = system: XF 498 CNS
HCC-2998 colon = system: HCC-2998 colon
SR leukemia = system: SR leukemia
UACC-257 melanoma = system: UACC-257 melanoma
DLD-1 colon = system: DLD-1 colon
RXF 393 renal = system: RXF 393 renal
HCT-116 colon = system: HCT-116 colon
SF-539 CNS = system: SF-539 CNS
786-0 renal = system: 786-0 renal
MCF7 breast = system: MCF7 breast
ACHN renal = system: ACHN renal
M14 melanoma = system: M14 melanoma
HOP-62 NSCLC = system: HOP-62 NSCLC
OVCAR-8 ovarian = system: OVCAR-8 ovarian
HL-60(TB) leukemia = system: HL-60(TB) leukemia
LOX IMVI melanoma = system: LOX IMVI melanoma
LXFL 529 NSCLC = system: LXFL 529 NSCLC
NCI-H522 lung = system: NCI-H522 lung
OVCAR-4 ovarian = system: OVCAR-4 ovarian
SK-MEL-28 melanoma = system: SK-MEL-28 melanoma
SF-295 CNS = system: SF-295 CNS
CAKI-1 renal = system: CAKI-1 renal
HCT-15 colon = system: HCT-15 colon
M19-MEL melanoma = system: M19-MEL melanoma
NCI-H460 lung = system: NCI-H460 lung
SK-OV-3 ovarian = system: SK-OV-3 ovarian
DMS 114 small cell lung = system: DMS 114 small cell lung
HT29 colon = system: HT29 colon
MOLT-4 leukemia = system: MOLT-4 leukemia
KM20L2 colon = system: KM20L2 colon
HOP-92 NSCLC = system: HOP-92 NSCLC
T-47D breast = system: T-47D breast
OVCAR-5 ovarian = system: OVCAR-5 ovarian
KM12 colon = system: KM12 colon
UO-31 renal = system: UO-31 renal
A498 renal = system: A498 renal
IGROV1 ovarian = system: IGROV1 ovarian
MDA-MB-435 = system: MDA-MB-435
DMS 273 small cell lung = system: DMS 273 small cell lung
SNB-19 CNS = system: SNB-19 CNS
SW-620 colon = system: SW-620 colon
K-562 leukemia = system: K-562 leukemia
OVCAR-3 ovarian = system: OVCAR-3 ovarian
MALME-3M melanoma = system: MALME-3M melanoma
DU-145 prostate = system: DU-145 prostate
CCRF-CEM leukemia = system: CCRF-CEM leukemia
RPMI-8226 leukemia = system: RPMI-8226 leukemia
SN12C renal = system: SN12C renal
HS 578T breast = system: HS 578T breast
BT-549 breast = system: BT-549 breast

O=C(Nc1cccc(C(F)(F)F)c1)C(=O)C(C(=O)c1ccc2ccccc2c1)C1OC(=O)c2ccccc21 (centres undefined)
TGI (SK-MEL-5 melanoma): 24.4 µM
TGI (UACC-62 melanoma): 19.1 µM
TGI (A549 NSCLC): 78.3 µM
TGI (NCI-H226 lung): 11.5 µM
TGI (U251 CNS): 17.4 µM
TGI (NCI-H23 lung): 17.7 µM
TGI (SK-MEL-2 melanoma): 15.8 µM
TGI (SNB-78 CNS): 26.6 µM
TGI (EKVX NSCLC): 27.5 µM
TGI (SF-268 CNS): 49.1 µM
TGI (TK-10 renal): 48 µM
TGI (SNB-75 CNS): 30.6 µM
TGI (COLO 205 colon): 38.9 µM
TGI (XF 498 CNS): 12.3 µM
TGI (HCC-2998 colon): 23.5 µM
TGI (SR leukemia): 16 µM
TGI (UACC-257 melanoma): 15.9 µM
TGI (DLD-1 colon): 23.4 µM
TGI (RXF 393 renal): 11.9 µM
TGI (HCT-116 colon): 21.2 µM
TGI (SF-539 CNS): 10.2 µM
TGI (786-0 renal): 15.9 µM
TGI (MCF7 breast): 45.8 µM
TGI (ACHN renal): 73.5 µM
TGI (M14 melanoma): 34.4 µM
TGI (HOP-62 NSCLC): 36.8 µM
TGI (OVCAR-8 ovarian): 35.6 µM
TGI (HL-60(TB) leukemia): 40.9 µM
TGI (LOX IMVI melanoma): 20.7 µM
TGI (LXFL 529 NSCLC): 20.8 µM
TGI (NCI-H522 lung): 25.6 µM
TGI (OVCAR-4 ovarian): > 42.7 µM
TGI (SK-MEL-28 melanoma): 15.7 µM
TGI (SF-295 CNS): 23.4 µM
TGI (CAKI-1 renal): > 100 µM
TGI (HCT-15 colon): 32.2 µM
TGI (M19-MEL melanoma): 31.1 µM
TGI (NCI-H460 lung): 36.3 µM
TGI (SK-OV-3 ovarian): > 100 µM
TGI (DMS 114 small cell lung): 17.1 µM
TGI (HT29 colon): 38.2 µM
TGI (MOLT-4 leukemia): 11.1 µM
TGI (KM20L2 colon): 33.5 µM
TGI (HOP-92 NSCLC): > 100 µM
TGI (T-47D breast): 84.8 µM
TGI (OVCAR-5 ovarian): 31.5 µM
TGI (KM12 colon): 29 µM
TGI (UO-31 renal): 20.6 µM
TGI (A498 renal): 20.3 µM
TGI (IGROV1 ovarian): 71.6 µM
TGI (MDA-MB-435): > 100 µM
TGI (DMS 273 small cell lung): > 100 µM
TGI (SNB-19 CNS): 25.8 µM
TGI (SW-620 colon): 37 µM
TGI (K-562 leukemia): > 73.7 µM
TGI (OVCAR-3 ovarian): 55.6 µM
TGI (MALME-3M melanoma): 17 µM
TGI (DU-145 prostate): 81.2 µM
TGI (CCRF-CEM leukemia): 29.1 µM
TGI (RPMI-8226 leukemia): 60.6 µM
TGI (SN12C renal): 36.9 µM
TGI (HS 578T breast): 45.2 µM
TGI (BT-549 breast): 93.9 µM

COc1ccc2c(c1)O[C@@H]1c3ccc(OC)cc3OC[C@H]21
TGI (SK-MEL-5 melanoma): 39.2 µM
TGI (UACC-62 melanoma): > 100 µM
TGI (A549 NSCLC): > 100 µM
TGI (NCI-H226 lung): 69.6 µM
TGI (U251 CNS): > 100 µM
TGI (NCI-H23 lung): > 100 µM
TGI (SK-MEL-2 melanoma): 89.6 µM
TGI (SNB-78 CNS): > 100 µM
TGI (SF-268 CNS): > 100 µM
TGI (TK-10 renal): > 100 µM
TGI (SNB-75 CNS): 51.4 µM
TGI (XF 498 CNS): > 100 µM
TGI (HCC-2998 colon): > 100 µM
TGI (SR leukemia): 97.5 µM
TGI (DLD-1 colon): > 100 µM
TGI (RXF 393 renal): 51 µM
TGI (HCT-116 colon): > 100 µM
TGI (SF-539 CNS): > 100 µM
TGI (786-0 renal): 72.1 µM
TGI (ACHN renal): > 100 µM
TGI (M14 melanoma): > 100 µM
TGI (HOP-62 NSCLC): > 100 µM
TGI (OVCAR-8 ovarian): > 100 µM
TGI (HL-60(TB) leukemia): > 100 µM
TGI (LOX IMVI melanoma): 83.7 µM
TGI (LXFL 529 NSCLC): > 100 µM
TGI (NCI-H522 lung): 51.6 µM
TGI (OVCAR-4 ovarian): > 100 µM
TGI (SK-MEL-28 melanoma): > 100 µM
TGI (SF-295 CNS): > 100 µM
TGI (CAKI-1 renal): > 100 µM
TGI (HCT-15 colon): > 100 µM
TGI (M19-MEL melanoma): > 100 µM
TGI (NCI-H460 lung): 82 µM
TGI (SK-OV-3 ovarian): > 100 µM
TGI (DMS 114 small cell lung): 58.9 µM
TGI (MOLT-4 leukemia): 50.3 µM
TGI (HOP-92 NSCLC): 79.7 µM
TGI (OVCAR-5 ovarian): > 100 µM
TGI (KM12 colon): > 100 µM
TGI (UO-31 renal): 77.6 µM
TGI (IGROV1 ovarian): > 100 µM
TGI (DMS 273 small cell lung): > 100 µM
TGI (SNB-19 CNS): > 100 µM
TGI (SW-620 colon): > 100 µM
TGI (K-562 leukemia): 57.3 µM
TGI (OVCAR-3 ovarian): > 100 µM
TGI (MALME-3M melanoma): > 100 µM
TGI (CCRF-CEM leukemia): 80.5 µM
TGI (RPMI-8226 leukemia): > 100 µM
TGI (SN12C renal): > 100 µM
